In brackets after ≈: the same amount, converted by molar mass. Activity calls are given as the source filed them. The calls are words filed in the database; no cut-off is given here.

This is an account of results in ChEMBL document CHEMBL3351728, “3-alkoxy-pyrrolo[1,2-b]pyrazolines as selective androgen receptor modulators with ideal physicochemical properties for transdermal administration” (J Med Chem, 2014).

The target of data set [1] is T1, Androgen receptor (Homo sapiens) (UniProt P10275).
T1 sequence (whole entry): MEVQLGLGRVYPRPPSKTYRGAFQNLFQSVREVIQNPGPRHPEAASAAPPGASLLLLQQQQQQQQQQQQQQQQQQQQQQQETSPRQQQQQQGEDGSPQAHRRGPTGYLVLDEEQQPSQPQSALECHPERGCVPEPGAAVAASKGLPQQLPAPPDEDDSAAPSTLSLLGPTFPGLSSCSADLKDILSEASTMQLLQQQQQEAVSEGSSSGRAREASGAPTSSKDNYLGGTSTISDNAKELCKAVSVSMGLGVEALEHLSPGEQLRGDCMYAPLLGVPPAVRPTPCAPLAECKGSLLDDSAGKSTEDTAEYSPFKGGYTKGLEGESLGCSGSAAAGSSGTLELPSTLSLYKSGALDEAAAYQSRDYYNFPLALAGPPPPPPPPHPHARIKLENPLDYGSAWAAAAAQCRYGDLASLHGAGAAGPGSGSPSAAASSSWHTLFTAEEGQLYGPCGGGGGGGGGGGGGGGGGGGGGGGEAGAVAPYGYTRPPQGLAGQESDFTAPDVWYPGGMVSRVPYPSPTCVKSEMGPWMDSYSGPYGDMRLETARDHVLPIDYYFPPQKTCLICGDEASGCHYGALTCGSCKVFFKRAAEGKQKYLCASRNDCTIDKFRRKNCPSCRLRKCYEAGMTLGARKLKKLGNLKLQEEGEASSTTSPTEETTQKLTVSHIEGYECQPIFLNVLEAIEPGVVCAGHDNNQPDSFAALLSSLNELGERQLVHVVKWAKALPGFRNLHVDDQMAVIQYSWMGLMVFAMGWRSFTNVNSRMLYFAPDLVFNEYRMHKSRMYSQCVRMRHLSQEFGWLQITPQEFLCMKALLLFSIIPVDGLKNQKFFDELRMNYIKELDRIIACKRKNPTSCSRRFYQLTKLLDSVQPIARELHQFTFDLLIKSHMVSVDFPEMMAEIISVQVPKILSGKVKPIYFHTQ
As to the kind of experiment: Agonist activity at human androgen receptor expressed in mouse C2C12 cells by androgen-specific response element-driven luciferase reporter gene assay relative to DHT. Format: cell-based.

The target in data set [2] is T2, Androgen receptor (Homo sapiens, UniProt P10275).
T2 sequence (P10275 whole entry): T1 sequence (whole entry)

Data set [3] concerns Rattus norvegicus. As to the kind of experiment: Anabolic activity in orchidectomized rat assessed as stimulation of bulbocavernosus/levator ani muscle weight treated subcutaneously once daily for 14 days by Hershberger assay. As to conditions: sc, 336 h. Format: functional.
The subject of data set [4] is Rattus norvegicus. The experiment in a line: Androgenic activity in orchidectomized rat assessed as stimulation of prostate weight treated subcutaneously once daily for 14 days by Hershberger assay. Format: organism-based. As to conditions: Prostate gland, sc, 336 h.
Data set [5] is described as follows: Thermodynamic solubility of the compound at pH 7.4. Format: physicochemical. As to conditions: buffer, read-out: Therm_solubility.
Data set [6] can be described thus: Lipophilicity, logP of the compound. Format: physicochemical. The note with it: octanol/water.
For the next data set, the system named is Zone of skin. The experiment in a line: Skin permeability in human cadaver skin in Franz diffusion cell system. The format is ADME.
The nature of data set [7]: Skin permeability by silicone and isopropyl myristate (70:30) containing artificial membranes based skin PAMPA method. Format: ADME.
Data set [8] can be described thus: Skin drug retention by silicone and isopropyl myristate (70:30) containing artificial membranes based skin PAMPA method.
The target of data set [9] is T2, Androgen receptor. The note with it: c2c12.

Turning to `Cc1c(C2=NN3CC[C@H](O)[C@H]3[C@@H]2OC(C)C)ccc(C#N)c1Cl`, the Emax in data set [1] was found to be 102%. At Androgen receptor [2], this compound yielded a concentration for a half-maximal effect (EC50) of 4.5 nM.
In data set [1], `CO[C@H]1CCN2N=C(c3ccc(C#N)c(Cl)c3C)[C@@H](OC)[C@H]12` registered an Emax of 82%.
On to `CCC(=O)O[C@H]1CC[C@H]2[C@@H]3CCC4=CC(=O)CC[C@]4(C)[C@H]3CC[C@]12C` [TESTOSTERONE PROPIONATE], for which the median effective dose (ED50) was 0.29 mg/kg in the data set on Rattus norvegicus [3] and 0.31 mg/kg in the data set on Rattus norvegicus [4].
In data set [1], `CCO[C@@H]1C(c2ccc(C#N)c(Cl)c2C)=NN2CC[C@H](O)[C@@H]12` returned an Emax of 98.3%. In data set [5], the solubility thermodynamic amounted to 250 µg/mL (≈ 782 µM). Further, the logP in [6] came out at 2.4. The compound further returned a Jss with Zone of skin of 0.9 ug/cm2.hr. Besides, in [7], the permeability result was “permeable”. Also, the Drug uptake entry in data set [8] is “inactive”. In addition, the EC50 at Androgen receptor [2] amounted to 1 nM.
On to `CO[C@@H]1C(c2ccc(C#N)c(Cl)c2C)=NN2C[C@@H](O)C[C@@H]12`, for which, in data set [1], the Emax entry is “inactive”. In addition, the concentration giving a half-maximal response (EC50) entry on Androgen receptor [9] is reported as “Not Active”.
On to `CO[C@@H]1C(c2ccc(C#N)c(Cl)c2C)=NN2CC(=O)C[C@@H]12`, for which the maximal response (Emax) in data set [1] is 93%. At Androgen receptor [2], this compound registered an EC50 of 26 nM.
For `CO[C@@H]1C(c2ccc(C#N)c(Cl)c2C)=NN2CC[C@H](F)[C@@H]12` the same measures were 93.5% and 1.5 nM.
The matching figures for `CO[C@@H]1C(c2ccc(C#N)c(Cl)c2C)=NN2C[C@H](O)C[C@@H]12`: 75% and 9.7 nM.
Regarding `C[C@]12CC[C@H]3[C@@H](CCC4=CC(=O)CC[C@@]43C)[C@@H]1CC[C@@H]2O` [TESTOSTERONE], the solubility thermodynamic in data set [5] is 40 µg/mL (≈ 139 µM). The Jss in the data set on Zone of skin is 0.19 ug/cm2.hr. Besides, the permeability entry in data set [7] is “permeable”. Further, in data set [8], the Drug uptake result was “inactive”.
In [1], `Cc1c(C2=NN3CC[C@H](O)[C@H]3[C@@H]2O)ccc(C#N)c1Cl` had a maximal response (Emax) of 55%. Besides, at Androgen receptor [2], the 50% effective concentration (EC50) worked out at 978 nM.
The matching figures for `CO[C@@H]1C(c2ccc(C#N)c(Cl)c2C)=NN2C[C@@H](F)C[C@@H]12`: 86% and 1.4 nM.
`CO[C@@H]1C(c2ccc(C#N)c(Cl)c2C)=NN2CC(F)(F)C[C@@H]12` displayed an Emax in data set [1] of 100%. Also, the solubility thermodynamic in [5] stood at 10 µg/mL (≈ 30.7 µM). The same compound gave a logP in [6] of 3.2. Further, the Jss in the data set with Zone of skin was 0.06 ug/cm2.hr. Further, the permeability result in data set [7] was “permeable”. Also, the Drug uptake result in data set [8] is “Active”. The compound further returned an EC50 at Androgen receptor [2] of 0.3 nM.
On to `CO[C@@H]1C(c2ccc(C#N)c(Cl)c2C)=NN2CC[C@@H](F)[C@@H]12`, for which the maximal response (Emax) in data set [1] was determined as 98%. The solubility thermodynamic in data set [5] worked out at 10 µg/mL (≈ 32.5 µM). Moreover, the logP in data set [6] turned out to be 2.7. Further, the Jss with Zone of skin amounted to 1.2 ug/cm2.hr. Also, the permeability result in data set [7] is recorded as “permeable”. In data set [8], the Drug uptake result is “inactive”. The same compound had an EC50 at Androgen receptor [2] of 0.16 nM.
In the case of `CO[C@@H]1C(c2ccc(C#N)c(Cl)c2C)=NN2CC[C@@H](O)[C@@H]12`, the maximum response (Emax) in data set [1] turned out to be 86.7%. For the same compound, in data set [5], the solubility thermodynamic is 250 µg/mL (≈ 818 µM). In data set [6], this compound returned a logP of 1.9. Besides, the Jss in the data set on Zone of skin stood at 0.2 ug/cm2.hr. This compound also came in with an EC50 on Androgen receptor [2] of 0.4 nM.
Consider `COCCO[C@@H]1C(c2ccc(C#N)c(Cl)c2C)=NN2CC[C@H](O)[C@@H]12`, for which, in [1], the maximum response (Emax) came to 82%. In data set [5], the solubility thermodynamic turned out to be 2300 µg/mL (≈ 6570 µM). In data set [6], this compound gave a lipophilicity (logP) of 2. In the data set on Zone of skin, this compound had a Jss of 1.1 ug/cm2.hr.
